# Test results as given in patent US9533995B2, “Substituted N-heteroaryl spirolactam bipyrrolidines, preparation and therapeutic use thereof” (SANOFI, priority 2010, dated 2017).
# Counter-ions that a name gives are not always drawn.
# Molecular target: rhesus (Macacca Mulatta) H3 receptor (Macaca mulatta, UniProt Q865E1)
# Experiment: Rhesus H3 radioligand binding assay ([3H]-Methylhistamine displacement, WGA SPA beads)
# Design: species or system rhesus monkey (Macacca Mulatta)
# Conditions: [3H]-Methylhistamine 2 nM, rhesus H3 membranes, 25° C., 1 hour; Cheng-Prusoff
# Protocol: Rhesus H3 membranes were prepared from the Flp-In T-REx 293 Cell Line (Invitrogen) stably transfected with pcDNA5/FRT/TO (Invitrogen) containing the rhesus monkey (Macacca Mulatta) 445 amino acid H3 receptor. (Genbank #AY231164). Stably transfected cultures were amplified in tissue culture flasks by standard tissue culture methods and induced to express rhesus H3 by exposure to 500 ng/ml tetracycline (Cellgro) for 24 hours. After induction, cells were dissociated from flasks utilizing Cell Stripper (Cellgro). Cells were centrifuged (1K×g, 5 min) and pellet frozen in an ethanol-dry ice bath to disrupt cell membranes. Frozen cell pellet was re-suspended in 5 mM HEPES (pH 7.4, Invitrogen) at 10 ml/1000 cm2 of harvested cells. The cell suspension was drawn through an 18 gauge needle (2-3×) followed by a 23 gauge needle (2-3×) to further disrupt cell membranes. The cell suspension was centrifuged (40K×g, 30 min). Cell membrane pellet was re-suspended in 5 mM HEPES (pH 7.4, Invitrogen) at a final protein concentration of 10 mg/ml. Rhesus H3 membranes were stored under liquid nitrogen prior to use in [3H]-Methylhistamine and GTPγS radioligand binding assays.
# Rhesus H3 radioligand binding assay was performed using rhesus H3 receptor membranes (prepared as described above), [3H]-Methylhistamine (Perkin Elmer) and WGA SPA beads (wheat germ agglutinin scintillation proximity assay) beads (Amersham). The assay was performed in 96-well Opti-Plates (Packard). Each reaction contained 50 μl rhesus H3 membranes (20-30 μg total protein), 50 μl WGA SPA beads (0.1 μg) and 50 μl of 83 Ci/mmol [^3H]-Methylhistamine (final concentration 2 nM) and 50 μl of tested compound. The compounds of this invention and/or vehicle were diluted with binding buffer from 10 mM DMSO stocks. Assay plates were sealed with TopSeal (Perkin Elmer) and mixed on shaker (25° C., 1 hour). Assay plates were read on TopCount scintillation counter (Packard). Results were analyzed by Hill transformation and Ki values were determined by Cheng-Prusoff equation.
# rhesus (Macacca Mulatta) H3 receptor, sequence (Q865E1 1-445): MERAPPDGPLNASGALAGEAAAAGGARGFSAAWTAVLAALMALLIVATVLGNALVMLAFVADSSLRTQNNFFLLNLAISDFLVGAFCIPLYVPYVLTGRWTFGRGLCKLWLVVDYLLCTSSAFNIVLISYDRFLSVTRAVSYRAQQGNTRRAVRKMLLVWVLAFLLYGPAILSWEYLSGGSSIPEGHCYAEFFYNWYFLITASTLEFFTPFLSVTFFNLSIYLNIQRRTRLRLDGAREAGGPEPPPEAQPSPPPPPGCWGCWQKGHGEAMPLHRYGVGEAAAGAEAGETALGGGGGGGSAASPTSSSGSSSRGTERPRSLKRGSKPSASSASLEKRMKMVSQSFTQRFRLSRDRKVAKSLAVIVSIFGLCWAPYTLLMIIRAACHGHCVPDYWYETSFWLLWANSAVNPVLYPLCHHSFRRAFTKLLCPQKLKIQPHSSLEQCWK
row,SMILES,Ki
1,"Cc1nc(N2CC[C@@H](N3CCC[C@@H]3C)C2)ccc1N1CCC2(CCOCC2)C1=O [Example 1, 2-[2-Methyl-6-((2S,3′R)-2-methyl-[1,3′]bipyrrolidinyl-1′-yl)-pyridin-3-yl]-8-oxa-2-aza-spiro[4.5]decan-1-one]",37.6 nM
2,"Cc1nc(N2CC[C@@H](N3CCC[C@@H]3C)C2)ccc1N1CCCC2(CCOCC2)C1=O [Example 2, 2-[2-Methyl-6-((2S,3′R)-2-methyl-[1,3′]bipyrrolidinyl-1′-yl)-pyridin-3-yl]-9-oxa-2-aza-spiro[5.5]undecan-1-one]",95.1 nM
3,"Cc1nc(N2CC[C@@H](N3CCC[C@@H]3C)C2)ccc1N1CCC2(CCC(O)CC2)C1=O (stereo partly drawn) [Example 5, 8-Hydroxy-2-[2-methyl-6-((2S,3′R)-2-methyl-[1,3′]bipyrrolidinyl-1′-yl)-pyridin-3-yl]-2-aza-spiro[4.5]decan-1-one]",267 nM
4,"Cc1nc(N2CC[C@@H](N3CCC[C@@H]3C)C2)ccc1N1CCC2(CCCCC2)C1=O [Example 6, 2-[2-Methyl-6-((2S,3′R)-2-methyl-[1,3′]bipyrrolidinyl-1′-yl)-pyridin-3-yl]-2-aza-spiro[4.5]decan-1-one]",56.5 nM
5,"Cc1nc(N2CC[C@H](N3CCC[C@@H]3C)C2)ccc1N1CCC2(CCOCC2)C1=O [Example 7, 2-[2-Methyl-6-((2S,3′S)-2-methyl-[1,3′]bipyrrolidinyl-1′-yl)-pyridin-3-yl]-8-oxa-2-aza-spiro[4.5]decan-1-one]",7.1 nM
6,"Cc1nc(N2CC[C@@H](N3CCC[C@@H]3C)C2)ccc1N1CCC2(CCNCC2)C1=O [Example 8, 2-[2-Methyl-6-((2S,3′R)-2-methyl-[1,3′]bipyrrolidinyl-1′-yl)-pyridin-3-yl]-2,8-diaza-spiro[4.5]decan-1-one hydrochloride]",17.5 nM
7,"Cc1nc(N2CC[C@@H](N3CCC[C@@H]3C)C2)ccc1N1CCCC2(CCNCC2)C1=O [Example 9, 2-[2-Methyl-6-((2S,3′R)-2-methyl-[1,3′]bipyrrolidinyl-1′-yl)-pyridin-3-yl]-2,9-diaza-spiro[5.5]undecan-1-one hydrochloride]",38.9 nM
8,"Cc1nc(N2CC[C@H](N3CCC[C@@H]3C)C2)ccc1N1CCC2(CCNCC2)C1=O [Example 11, 2-[2-Methyl-6-((2S,3′S)-2-methyl-[1,3′]bipyrrolidinyl-1′-yl)-pyridin-3-yl]-2,8-diaza-spiro[4.5]decan-1-one]",7.57 nM

# Other lines, results leading:
row,Ki,SMILES
1,26.3 nM,"C[C@H]1CCCN1[C@H]1CCN(c2cnc(N3CCC4(CCNCC4)C3=O)cn2)C1 [Example 10, 2-[5-((2S,3′S)-2-Methyl-[1,3′]bipyrrolidinyl-1′-yl)-pyrazin-2-yl]-2,8-diaza-spiro[4.5]decan-1-one]"
2,48.5 nM,"C[C@H]1CCCN1[C@H]1CCN(c2ncc(N3CCC4(CCN(C(=O)OC(C)(C)C)CC4)C3=O)cn2)C1 [Example 12, 2-[2-((2S,3′S)-2-Methyl-[1,3′]bipyrrolidinyl-1′-yl)-pyrimidin-5-yl]-1-oxo-2,8-diaza-spiro[4.5]decane-8-carboxylic acid tert-butyl ester]"
3,22.3 nM,"C[C@H]1CCCN1[C@H]1CCN(c2ccc(N3CCC4(CCOCC4)C3=O)nc2)C1 [Example 13, 2-[5-((2S,3′S)-2-Methyl-[1,3′]bipyrrolidinyl-1′-yl)-pyridin-2-yl]-8-oxa-2-aza-spiro[4.5]decan-1-one]"
4,105 nM,"C[C@H]1CCCN1[C@H]1CCN(c2cnc(N3CCC4(CCN(C(=O)OC(C)(C)C)CC4)C3=O)cn2)C1 [Example 14, 2-[5-((2S,3′S)-2-Methyl-[1,3′]bipyrrolidinyl-1′-yl)-pyrazin-2-yl]-1-oxo-2,8-diaza-spiro[4.5]decane-8-carboxylic acid tert-butyl ester]"
5,95.5 nM,"Cc1nc(N2CC[C@H](N3CCC[C@@H]3C)C2)ccc1N1CCC2(CCN(C(=O)OC(C)(C)C)CC2)C1=O [Example 15, 2-[2-Methyl-6-((2S,3′S)-2-methyl-[1,3′]bipyrrolidinyl-1′-yl)-pyridin-3-yl]-1-oxo-2,8-diaza-spiro[4.5]decane-8-carboxylic acid tert-butyl ester]"
6,4.21 nM,"C[C@H]1CCCN1[C@H]1CCN(c2ncc(N3CCC4(CCOCC4)C3=O)cn2)C1 [Example 16, 2-[2-((2S,3′S)-2-Methyl-[1,3′]bipyrrolidinyl-1′-yl)-pyrimidin-5-yl]-8-oxa-2-aza-spiro[4.5]decan-1-one]"
